# Experimental data from US11090305B2, “Methods and compositions to reduce oxidative stress” (University of Massachusetts, priority 2009, dated 2021).
# Assays:
# [1] = system: ischemic hindlimb of rats; experiment: Evaluation of muscle necrosis (NBT staining, H&E, muscle weights) (Example 1); assay type: in vivo, rat; settings: 7 days after AdeNOS or PBS (17 days after induction of ischemia)
# Method: Muscle necrosis was determined using cut sections of tibialis anterior and gastrocnemius muscle. Muscle samples were cut transversely into 3 pieces (cuts made in 2 mm increment); two sections were stained with nitroblue tetrazolium (NBT). These sections were incubated in phosphate buffered saline (pH 7.4) containing 0.033% NBT (Fischer Biotech, Austin, Tex.) and 0.133% NADH (Roche Diagnostics, Indianapolis, Ind.) for 10 min, and then fixed in 4% paraformaldehyde for 24 hours. The areas of viable (stained) and non-viable (unstained) tissue were quantified using Image Pro software (Media Cybernetics, Bethesda, Md.) and the average taken for each rat. The third cut muscle section was used for H&E staining.
# [2] = system: ischemic hindlimb of rats; experiment: Laser Doppler perfusion imaging of hindlimb blood flow (Example 1); assay type: in vivo, rat; settings: days after AdeNOS or PBS administration
# Method: Hindlimb blood flow was determined by means of laser Doppler imaging (Moor Instruments, Ltd., Devon, United Kingdom). Flow was measured preoperatively, immediately after arterial excision, immediately before AdeNOS or saline administration, and on days 4, 7, 21, and 30 thereafter. Scans were obtained during inhalation of 1% isoflurane while core body temperature was maintained between 36.8-37.2° C. by means of a heating element driven by a rectal temperature probe. Scans were repeated three times and the average for each rat determined. Data were expressed as the ratio of ischemic:non-ischemic hindlimb.
# [3] = system: Ca^2+-dependent NOS; experiment: Ca^2+-dependent NOS activity in gastrocnemius muscle, hindlimb ischemia (Example 1); assay type: in vivo, rat; settings: 4 days after AdeNOS or PBS (14 days after induction of ischemia)
# Method: A portion of the gastrocnemius muscle harvested on day 4 after AdeNOS or saline administration (14 days after induction of ischemia) was snap frozen in liquid N2 for subsequent analysis of Ca^2+-dependent NOS activity (EMD Chemicals, Gibbstown, N.J.). 50 μg of muscle protein homogenate was incubated in 10 mM NADPH, 1 μCi/μl ^14C-arginine, 6 mM CaCl2, 50 mM Tris.HCl (pH 7.4), 6 μM BH4, 2 μM FAD, and 2 μM FMN for 30 minutes at 37° C. The reaction was stopped with 400 μl of 50 mM Hepes (pH 5.5) and 5 mM EDTA. Identical samples were prepared without CaCl2 and all reactions were performed in duplicate. The radioactivity of the sample eluate was measured in a liquid scintillation counter. Enzyme activity was expressed as […] per minute per microgram protein (CPM/min/ug). The Ca^2+-NOS activity was calculated by subtracting the NOS activity measured without calcium from the total activity measured in the presence of calcium.
# [4] = system: p19^Arf, p21^Waf1, and p27^Kip1; experiment: RT-PCR expression of p19^Arf, p21^Waf1, p27^Kip1 in HSCs; assay type: in vivo, mouse
# Method: The expression of p15^Ink4b, p16^Ink4a, p18^Ink4c, p19^ARF, P21^Waf1, and p27^Kip1 was determined using RT-PCR, a more sensitive and quantitative assay, in ApoE^−/− and WT HSCs.
# [5] = system: HSCs; experiment: Competitive HSC transplantation, bone marrow repopulation; assay type: in vivo, mouse; settings: for outcome of competitive transplant with CD45.2 WT HSCs: WT donor mice treated 2 weeks before harvest
# Method: HSC were purified from freshly harvested bone marrow mononuclear cells as c-Kit^+Sca-1^+CD90.1^lowLin^− by FACS sorting. Recipient mice were C57BL/6 (WT) on standard chow. Recipients underwent lethal irradiation (1100 Rads delivered in 2 doses 3 hr apart). Immediately after the 2nd irradiation, recipients were anesthetized (2% isoflurane) and 10^6 HSC/0.1 ml sterile PBS were transplanted via retro-orbital injection. Mice were followed for 12 weeks before study or administration of AOM.
# The functional consequence of this loss of quiescence by competitive transplantation was investigated next, insofar as the presence of quiescent HSC are critical for successful bone marrow reconstitution. HSCs from CD45.2 ApoE^−/− or HCD mice were mixed 1:1 with CD45.1 WT HSCs and then transplanted into lethally irradiated CD45.1 WT recipients.
# Activation of p38 MAPK reduces HSC quiescence in Atm^−/− mice. To evaluate this phenomena in hypercholesterolemic mice, ApoE^−/− and WT mice were treated with the selective p38 MAPK inhibitor SB203580 or the MEK 1 inhibitor PD98059 for 2 weeks prior to harvest of HSCs for transplant. CD45.2 ApoE^−/− or WT HSCs with mixed 1:1 with CD45.1 WT HSCs and transplanted into lethally irradiated CD45.1 recipient mice.
# [6] = system: Notch1; experiment: Notch1 expression in HSCs and lymphoid progenitors (Example 5); assay type: in vivo, mouse
# Method: Cells were stained with monoclonal antibodies conjugated to various fluoroprobes. These antibodies included: Notch1, cKit (2B8), Sca-1 (E13-161.7), CD4 (L3T4), CD8 (53-6.72), CD90.1, CD25, CD44, TCRβ, NK1.1, γδTCR, CD45.1, CD45.2. The lineage cocktail consisted of CD4, CD8, B220 (RA3-6B2), TER-119, Mac-1 (MI/70), and Gr-1 (RB6-8C5). All antibodies were purchased from BD Bioscience (San Diego, Calif.). FACS analysis was carried out on a FACS Diva.
# The Notch family is an evolutionarily conserved system of receptors and ligands that play a fundamental role in regulating cell-fate decision in many types of stem and progenitor cells, including HSCs. Notch1 plays a critical role in lymphocyte differentiation, wherein expression of Notch1 favors T cell differentiation. To clarify the effects of hypercholesterolemia on the expression Notch family, the expression of Notch family was screened in HSCs isolated from WT and ApoE^−/− mice. The percentage of HSCs expressing of Notch1 was higher in hypercholesterolemic than WT mice, whereas no differences in Notch2, Notch4, or Delta-like-1 were noted among groups (FIG. 47A). FIGS. 47A-47D show notch 1 expression is greater in HSCs from hypercholesterolemic mice. […] (B) Within the HSC population, a higher percentage of long term-HSCs expressed Notch1 than did short term-HSCs. This difference was evident in both WT and ApoE^−/− mice, although the percentage of short term-HSCs expressing Notch1 was twofold higher in ApoE^−/− than WT mice. […] (D) Treatment of ApoE^−/−, but not WT mice with SB203580 reduced the percentage of HSCs expressing Notch1. m±sd, n=5, *p<0.05 vs. WT, †p<0.05 vs. ApoE or HCD, p<0.05 vs. long-term HSCs.
# [7] = system: PAD patients; settings: acute or short term supplementation, literature; cited from earlier work
# [8] = system: Ca^2+-dependent NOS; experiment: Ca^2+-dependent NOS activity in gastrocnemius muscle (Example 2); assay type: in vivo, rat; settings: 14 days after induction of ischemia
# Method: (§1) Rats were sacrificed 14 days after induction of ischemia for determination of gastrocnemius muscle NOS activity. […] Muscles were homogenized in ice-cold buffer (250 mM Tris-HCl, pH 7.4, 10 mM EDTA, 10 mM EGTA), centrifuged, and the protein in the supernatant adjusted to 5 μg/ml. Samples were incubated in 10 mM NADPH, 1 μCi/μl ^14C-Arg, 6 mM CaCl2, 50 mM Tris.HCl (pH 7.4), 6 μM BH4, 2 uM FAD, and 2 μM FMN for 30 minutes at 37° C. The reaction was stopped with 400 μl of 50 mM Hepes, pH 5.5, 5 mM EDTA. Identical samples were prepared without CaCl2 and all reactions were performed in duplicate. The radioactivity of the sample eluate was measured and expressed as CPM/μg protein. The Ca^2+-dependent NOS activity, which corresponds to the sum of the endothelial and neural NOS isoforms, was calculated by subtracting the NOS activity measured in the absence of CaCl2) from the NOS activity measured in the presence of CaCl2). The Ca^2+-independent NOS activity corresponds to inflammatory isoform of NOS, or iNOS.
# [9] = system: Ca^2+-independent NOS (iNOS); experiment: Ca^2+-independent NOS activity in gastrocnemius muscle (Example 2); assay type: in vivo, rat; settings: 14 days after induction of ischemia
# Method: as §1
# [10] = system: nitrotyrosine; experiment: Nitrotyrosine accumulation in gastrocnemius muscle by western blotting (Example 2); assay type: in vivo, rat; settings: 14 days after induction of ischemia
# Method: (§2) Rats were sacrificed 14 days after induction of ischemia for measurement of gastrocnemius muscle eNOS and nitrotyrosine expression. […] Samples were homogenized in liquid nitrogen and transferred to NP-40 lysis buffer, comprised of 50 mM HEPES (pH 7.5), 150 mM NaCl, 10% glycerol, 1.5 mM MgCl2, 1 mM EDTA, 100 mM NaF, 1% NP 40, 1 mM PMSF, and […] aprotinin. The lysates were centrifuged, the supernatant recovered, and the protein concentration determined (Pierce Biotechnology, Rockford, Ill.). […] Membranes were incubated overnight at 4° C. with mouse monoclonal anti-nitrotyrosine (Cayman Chemical Co., Ann Arbor, Mich., 1:1000) or mouse monoclonal anti-eNOS (BD Transduction Laboratories, San Diego, Calif., 1:1000) and then incubated for 2 h with horseradish peroxidase-conjugated anti-mouse IgG antibody (Pierce Biotechnology, 1:5000). Immunoreactive bands were visualized using the enhanced chemiluminescence system (Amersham, Arlington Heights, Ill.). Band density was quantitated by standard densitometry and the intensity of the band of interest expressed as a function of the α-tubulin band.
# [11] = system: eNOS; experiment: eNOS expression in gastrocnemius muscle by western blotting (Example 2); assay type: in vivo, rat; settings: dietary supplements from 7 days before ischemia; 14 days after induction of ischemia
# Method: as §2
# [12] = system: wt MSC; experiment: Response of wt MSC to adipogenic medium (Oil Red O staining); assay type: cell-based, mouse; settings: WT MSCs, increased concentrations
# Method: (§3) Adipocytes were identified by Oil Red O staining. m±sd, n=4, *p<0.05 vs control. […] Endothelial cells were identified by CD31 staining. m±sd, n=4, *p<0.05 vs control, #p<0.05 vs 5 nM.
# [13] = system: wt MSC; experiment: Basal PPARγ, adiponectin, eNOS and p-eNOS expression in wt MSC; assay type: cell-based, mouse; settings: WT MSCs, increased concentrations
# Method: as §3
# [14] = system: wt MSC; experiment: Nox 4 expression and DCF staining in wt MSC after insulin treatment; assay type: cell-based, mouse; settings: WT MSCs, increased concentrations
# Method: as §3
# [15] = system: wt MSC; experiment: Response of wt MSC to endogenic medium (CD31 staining); assay type: cell-based, mouse; settings: WT MSCs, increased concentrations
# Method: as §3
# [16] = ApoE^−/− mice, in vivo treatment
molecule,measurement,setting,value
"C[C@H](O)[C@H](O)[C@H]1CNc2nc(N)[nH]c(=O)c2N1 [BH4, tetrahydrobiopterin]",extent of muscle necrosis (NBT staining),[1],no effect
same,hindlimb blood flow recovery,[2],no effect
same,Ca^2+-dependent NOS activity in gastrocnemius muscle,[3],no effect
COc1cccc(-c2cc(=O)c3ccccc3o2)c1N [PD98059],"HSC expression of p19^Arf, p21^Waf1, and p27^Kip1",[4]; [16],had no effect
same,"HSC expression of p19^Arf, p21^Waf1, and p27^Kip1",[4]; WT HSCs,neither drug affected expression of these proteins in WT HSCs
same,outcome of competitive transplant with CD45.2 WT HSCs,[5],Neither drug affected the outcome
C[S+]([O-])c1ccc(-c2nc(-c3ccncc3)c(-c3ccc(F)cc3)[nH]2)cc1 (stereo not shown) [SB203580],"HSC expression of p19^Arf, p21^Waf1, and p27^Kip1",[4]; [16],"significantly reduced HSC expression of p19^Arf, p21^Waf1, and p27^Kip1"
same,"HSC expression of p19^Arf, p21^Waf1, and p27^Kip1",[4]; WT HSCs,neither drug affected expression of these proteins in WT HSCs
same,percentage of CD45.2^+ bone marrow mononuclear cells 12 weeks after competitive transplantation,"[5]; ApoE^−/− donor mice treated before HSC harvest (NAC 4 weeks; SB203580, PD98059 2 weeks)",significantly improved the efficacy of ApoE^−/− HSCs in the competitive transplant paradigm
same,outcome of competitive transplant with CD45.2 WT HSCs,[5],Neither drug affected the outcome
same,percentage of HSCs expressing Notch1,[6]; WT mice,did not affect the WT group
same,percentage of HSCs expressing Notch1,"[6]; hypercholesterolemic mice (ApoE^−/−, HCD), in vivo treatment",significantly reduced the percentage of ApoE^−/− HSCs expressing Notch1
"O=C1O[C@H]([C@@H](O)CO)C(O)=C1O [vitamin C, L-ascorbic acid]",PAD symptoms,[7],reduce PAD symptoms
L-arginine α-ketoglutarate,Ca^2+-dependent NOS activity in the ischemic gastrocnemius muscle,[8],greater than that of rats fed normal chow
same,Ca^2+-independent NOS activity in the ischemic gastrocnemius muscle,[9],statistically similar to the normal chow group
same,nitrotyrosine level in the ischemic gastrocnemius muscle,[10],significantly less than the level noted in rats fed normal chow
same,eNOS expression in the ischemic gastrocnemius muscle,[11],significantly greater than that of rats fed normal chow
insulin: insulin treatment of wt MSC,differentiation towards adipocytes,[12],increased differentiation towards adipocytes
same,PPARgamma expression,[13],increased PPARgamma
same,p-eNOS expression,[13],decreased p-eNOS expression
same,Nox 4 expression and oxidative stress,[14],increased Nox 4 expression and oxidative stress
same,differentiation towards endothelial cells,[15],decreased differentiation towards endothelial cells
